Laboratory results: patent publication US20250136576A1, “Heterocyclic Compounds and Uses Thereof” (ACEA Therapeutics, Inc., priority 2021, published 2025)
Like-named read-outs stand apart in the source and are kept apart here.

Key:
Assay type in all cases: cell-based
MV-4-11 (AML) cells = assay: Cell proliferation and growth inhibition assay (CCK-8) in MV-4-11; settings: Homo sapiens, MV4-11; MV-4-11 cells, treated with test compounds for 72 hrs, CCK-8 viability
Procedure: MV-4-11 and H1975 cells were obtained from the American Type Culture Collection and KM12-luc cells were obtained from JCRB Cell Bank. All cell lines were maintained at 37° C. with 5% C02, in media supplemented with 10% fetal bovine serum and penicillin (100 units/mL) and streptomycin (100 μg/mL). MV-4-11 cells were maintained in Iscove's Modified Dubecco's Medium, H1975 cells were cultured with RPMI 1640 media, and KM12-luc cells were maintained in Dulbecco's Modification of Eagle's Medium. CCK-8 reagent was obtained from Yeasen.
Cell proliferation was assessed by CCK-8 assay (Yeasen) per the manufacturer's instructions. The MV-4-11 (AML), H1975, and KM12-luc cells were seeded at 30,000, 3,000 and 2,500 cells per well onto 96-well plates, and after a 24 h incubation, the cells were treated with test compounds for 72 hrs. Cell viability was assayed by incubating the cells with CCK-8 reagent for 1-4 hrs. Absorbance was measured at OD450 using the Beckman DTX880. The data was calculated using GraphPad Prism version 6.01. The IC50 values were fitted using a non-linear regression model with a sigmoidal dose response.

H1975 cells = assay: Cell proliferation and growth inhibition assay (CCK-8) in H1975; settings: Homo sapiens, NCI-H1975, 72 h, treated with test compounds for 72 hrs, CCK-8 viability, read-out: EGFR IC50 in H1975
Outline: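 Cells seeded at 30,000 (MV-4-11, IMDM) or 3,000 (H1975, RPMI 1640) per well, left 24 h, then compound-treated 72 h at 37 °C, 5% CO2, 10% FBS. Viability read by CCK-8 (1–4 h) at OD450. IC50 from sigmoidal dose-response nonlinear regression.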

KM12-luc cells = assay: Cell proliferation and growth inhibition assay (CCK-8) in KM12-luc; settings: KM12-luc cells, treated with test compounds for 72 hrs, CCK-8 viability, read-out: NTRK IC50 in KM12-luc
Outline: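 Cells were grown at 37 °C, 5% CO2 with 10% FBS: MV-4-11 in IMDM, H1975 in RPMI 1640, KM12-luc in DMEM. Viability was read by CCK-8 (1-4 hrs reagent incubation, absorbance at OD450). IC50 came from a non-linear sigmoidal dose-response fit.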

IC50 (MV-4-11 (AML) cells) [nM]	IC50 (H1975 cells) [nM]	SMILES	IC50 (KM12-luc cells; KM12-Luc, 72 h) [nM]	IC50 (KM12-luc cells) [nM]
4.6	118	COc1cccc2c(-c3nc(Nc4ccc(N5CC[C@H](N(C)C)C5)c(N)c4)ncc3C(F)(F)F)c[nH]c12 [Compound S-383, (S)-4-(3-(dimethylamino)pyrrolidin-1-yl)-N^1-(4-(7-methoxy-1-1H-indol-3-yl)-5-(trifluoromethyl)pyrimidin-2-yl)benzene-1,3-diamine]	9.5	
3.2	167	Cc1cccc2c(-c3nc(Nc4ccc(N5CC[C@H](N(C)C)C5)c(N)c4)ncc3Cl)cn(C)c12 [Compound S-425, (S)—N^1-(5-chloro-4-(1,7-dimethyl-1H-indol-3-yl)pyrimidin-2-yl)-4-(3-(dimethylamino)pyrrolidin-1-yl)benzene-1,3-diamine]		3.5
5.6	198	CC(=O)Nc1cc(Nc2ncc(C(F)(F)F)c(-c3c[nH]c4c(F)cccc34)n2)ccc1N1CC[C@H](N(C)C)C1 [Compound S-344, (S)—N-(2-(3-(dimethylamino)pyrrolidin-1-yl)-5-((4-(7-fluoro-1H-indol-3-yl)-5-(tri-fluoromethyl)pyrimidin-2-yl)amino)phenyl)acetamide]	6.3	

More lines, now with the values behind:

SMILES	IC50 (MV-4-11 (AML) cells) [nM]	IC50 (H1975 cells) [nM]	IC50 (KM12-luc cells; KM12-Luc, 72 h) [nM]	IC50 (KM12-luc cells) [nM]
COc1cccc2c(-c3nc(Nc4ccc(OCCN(C)C)c(NC(C)=O)c4)ncc3C(F)(F)F)c[nH]c12 [Compound 381, N-(2-(2-(dimethylamino)ethoxy)-5-((4-(7-methoxy-1H-indol-3-yl)-5-(trifluoromethyl)pyrimidin-2-yl)amino)phenyl)acetamide]	5.2	168	7.2	
CC(=O)Nc1cc(Nc2ncc(Cl)c(-c3c[nH]c4c(C)cccc34)n2)ccc1N1CC[C@@H](N(C)C)C1 [Compound R-426, (R)—N-(5-((5-chloro-4-(7-methyl-1H-indol-3-yl)pyrimidin-2-yl)amino)-2-(3-(dimethylamino)pyrrolidin-1-yl)phenyl)acetamide]	3	152	2.1	
CCC(=O)Nc1cccc(Nc2ncc(C(F)(F)F)c(Nc3ccc(N4CCN(C(C)=O)CC4)cc3OC)n2)c1 [Compound 169, N-(3-((4-((4-(4-acetylpiperazin-1-yl)-2-methoxyphenyl)amino)-5-(trifluoromethyl)pyrimidin-2-yl)amino)phenyl)propionamide]	25.9	285	43.8	
CC(=O)Nc1cc(Nc2ncc(Cl)c(-c3c[nH]c4ccccc34)n2)ccc1N(C)C(=O)CCN(C)C [Compound 446, N-(2-acetamido-4-((5-chloro-4-(1H-indol-3-yl)pyrimidin-2-yl)amino)phenyl)-3-(dimethylamino)-N-methylpropanamide]	10.6	667	4.9	
CCC(=O)Nc1cccc(Nc2ncc(Cl)c(Nc3ccc(C4CCCN(C)C4)cc3OC)n2)c1 (stereo not drawn) [Compound 166, N-(3-((5-chloro-4-((2-methoxy-4-(1-methylpiperidin-3-yl)phenyl)amino)pyrimidin-2-yl)amino)phenyl)propionamide]	96.8	691	39.5	
CC(=O)Nc1cc(Nc2ncc(C(F)(F)F)c(-c3c[nH]c4c(C)cccc34)n2)ccc1OCCN(C)C [Compound 365, N-(2-(2-(dimethylamino)ethoxy)-5-((4-(7-methy-1H-indol-3-yl)-5-(trifluoromethyl)pyrimidin-2-yl)amino)phenyl)acetamide]	4.4	68.3	4.3	
CC(=O)Nc1cc(Nc2ncc(C(F)(F)F)c(-c3c[nH]c4c(F)cccc34)n2)ccc1N1CC[C@@H](N(C)C)C1 [Compound R-344, (R)—N-(2-(3-(dimethylamino)pyrrolidin-1-yl)-5-((4-(7-fluoro-1H-indol-3-yl)-5-(tri-fluoromethyl)pyrimidin-2-yl)amino)phenyl)acetamide]	5.4	205	7.4	
Cc1cccc2c(-c3nc(Nc4ccc(N(C)CCN(C)C)c(N)c4)ncc3Cl)c[nH]c12 [Compound 422, N^4-(5-chloro-4-(7-methyl-1H-indol-3-yl)pyrimidin-2-yl)-N^1-(2-(dimethylamino)ethyl)-N^1-methylbenzene-1,2,4-triamine]	5.2	288	5.2	
